Results taken from BindingDB's records for patent US9278914 (University of Tennessee Research Foundation, 2016).

Molecular target: Cytochrome P450 2C9 (Homo sapiens, UniProt P11712)
Assay: In Vitro CYP Inhibition Assay
Conditions: 37 °C

Sequence of Cytochrome P450 2C9 (P11712 whole entry): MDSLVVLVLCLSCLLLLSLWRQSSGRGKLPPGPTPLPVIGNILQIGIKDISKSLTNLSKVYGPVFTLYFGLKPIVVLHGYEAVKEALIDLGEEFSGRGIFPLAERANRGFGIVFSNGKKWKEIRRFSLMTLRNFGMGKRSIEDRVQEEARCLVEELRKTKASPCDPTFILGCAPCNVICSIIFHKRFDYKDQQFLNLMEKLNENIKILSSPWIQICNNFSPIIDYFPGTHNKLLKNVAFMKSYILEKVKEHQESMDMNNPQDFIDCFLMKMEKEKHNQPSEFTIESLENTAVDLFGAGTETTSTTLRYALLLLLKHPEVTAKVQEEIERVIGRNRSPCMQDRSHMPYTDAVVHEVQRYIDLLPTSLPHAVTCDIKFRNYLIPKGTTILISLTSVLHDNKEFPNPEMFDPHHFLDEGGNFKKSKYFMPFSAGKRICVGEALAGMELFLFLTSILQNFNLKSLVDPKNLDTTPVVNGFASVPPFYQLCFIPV

## C[C@](O)(COc1ccc(Cl)c(F)c1)C(=O)Nc1ccc(C#N)c(C(F)(F)F)c1 [US9278914, S-II]
  IC50: > 20 µM
